Assay results taken from patent publication US20260191841A1, “TREATMENT OF CHRONIC KIDNEY DISEASE IN TYPE I DIABETES MELLITUS” (BAYER AKTIENGESELLSCHAFT, priority 2022, published 2026).

What was measured:
[1] = patients with CKD and T1D; vs placebo; cited from earlier work
[2] = FIDELITY UACR mixed model, restricted to patients with UACR>=200 mg/g and eGFR between 25 and 90 ml/min/1.73 m^2; assay type: in vivo, human; conditions: FIDELITY restricted population
Experimental: UACR will be analyzed assuming a lognormal distribution. Assumptions for the UACR ratios to baseline at 6 months are based on the FIDELITY UACR mixed model restricted to patients with UACR>=200 mg/g and eGFR between 25 and 90 ml/min/1.73 m^2.
In the FIDELITY restricted population, the UACR ratio to baseline after 4 months was 0.61 and 0.53 after 12 months in the finerenone group. The value, using interpolation, at 6 months was estimated to be 0.59. As a conservative approach, we will assume the treatment ratio (finerenone/placebo) over 6 months to be 0.7 (i.e., the difference in UACR ratio to baseline between finerenone and placebo to be 30%). The standard deviation was calculated to range from 0.75 and 1.0 between month 4 and 12. Using linear interpolation, at month 6 it was assumed to be approximately 0.8.

[3] = patients with T2D; coadministered with an ACEI or an ARB; cited from earlier work

Compound	albuminuria [1]	rate of kidney function decline [1]	UACR ratio to baseline ([2]; after 4 months, finerenone group)	UACR ratio to baseline ([2]; after 12 months, finerenone group)	UACR ratio to baseline ([2]; at 6 months, estimated using interpolation)	cardiovascular morbidity [3]	progression of diabetic kidney disease [3]
Oc1ncnc2[nH]ncc12 [allopurinol]	did not reduce albuminuria	nor delay the rate of kidney function decline					
CCOc1ncc(C)c2c1[C@H](c1ccc(C#N)cc1OC)C(C(N)=O)=C(C)N2 [finerenone, (4S)-4-(4-cyano-2-methoxyphenyl)-5-ethoxy-2,8-dimethyl-1,4-dihydro-1,6-naphthyridine-3-carboxamide]			0.61	0.53	0.59	reduces cardiovascular morbidity	delays the progression of diabetic kidney disease
